Experimental findings from publication PMC6127930 (2018) are described below.

This experiment concerns oxytetracycline binding aptamer (OBA) (DNA, aptamer) CGTACGGAATTCGCTAGCACGTTGACGCTGGTGCCCGGTTGTGGTGCGAGTGTTGTGTGGATCCGAGCTCCACGTG
The experiment is described as follows: magnetic capture, UV-Vis of unbound at 368 nm. As to conditions: 100 mM NaCl, 5 mM KCl, 2 mM MgCl2, 1 mM CaCl2, 20 mM Tris-HCl pH 7.6, room temperature, 2 h.

In the case of `COc1ccc2cc([C@H](C)C(=O)O)ccc2c1`, the binding entry (tested at 5 µM, 9.0 ± 1.3% non-specifically adsorbed) is recorded as “no”.
On to `O=C(O)Cc1ccccc1Nc1c(Cl)cccc1Cl`, for which the binding entry (tested at 5 µM, 8.7 ± 3.7% non-specifically adsorbed) is recorded as “no”.
For `CN(C)[C@@H]1C(=O)C(C(N)=O)=C(O)[C@@]2(O)C(=O)C3=C(O)c4c(O)cccc4[C@@](C)(O)[C@H]3[C@H](O)[C@@H]12`, where the note is “5 µM compound, 85 ± 2.8% captured”, the binding entry is given as “yes”.
